Article PMC3017236 (Clinical cancer research : an official journal of the …, 2010)
Entries after “also recorded” stand apart in the source; their conditions may differ. Like-named read-outs stand apart in the source and are kept apart here.

Tests used:
[1] = tested on: P-gp (Mdr1a/b) and Bcrp1/Abcg2; details: mouse, in vivo
[2] = molecular target: T1, organic anion transporter-3 (OAT3) (Homo sapiens, UniProt Q8TCC7); assay: Uptake in HEK-293 cells transfected with OAT3 vs empty vector; details: HEK-293/OAT3, 5 minutes incubation, 0.5 μg/mL
T1 sequence (Q8TCC7 1-542): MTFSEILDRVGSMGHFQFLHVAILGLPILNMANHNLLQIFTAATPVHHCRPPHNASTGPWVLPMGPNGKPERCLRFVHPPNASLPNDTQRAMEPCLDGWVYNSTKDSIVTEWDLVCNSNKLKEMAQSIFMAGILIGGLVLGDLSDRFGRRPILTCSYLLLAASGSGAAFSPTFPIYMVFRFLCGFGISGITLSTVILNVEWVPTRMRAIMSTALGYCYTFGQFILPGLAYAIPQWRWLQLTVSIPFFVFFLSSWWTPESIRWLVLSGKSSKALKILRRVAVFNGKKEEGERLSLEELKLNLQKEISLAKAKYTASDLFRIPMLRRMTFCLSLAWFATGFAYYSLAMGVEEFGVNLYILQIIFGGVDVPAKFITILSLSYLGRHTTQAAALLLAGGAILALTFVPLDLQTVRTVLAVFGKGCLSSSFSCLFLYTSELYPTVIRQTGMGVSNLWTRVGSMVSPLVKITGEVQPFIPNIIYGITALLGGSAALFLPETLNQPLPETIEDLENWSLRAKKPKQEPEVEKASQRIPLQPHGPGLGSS

[3] = tested on: Mrp4/Abcc4; assay: Brain microdialysis; details: Abcc4−/− mice, 50 mg/kg oral erlotinib, mean ± SD
[4] = tested on: P-gp (Mdr1a/b); details: mouse, in vivo, po, 50 mg/kg
[5] = molecular target: human ABCB1 (P-gp/MDR1) (Homo sapiens, UniProt P08183); assay: Intracellular accumulation in LLCPK1-MDR1 cells vs LLCPK1 cells
Chain of human ABCB1 (P-gp/MDR1) (P08183 whole entry): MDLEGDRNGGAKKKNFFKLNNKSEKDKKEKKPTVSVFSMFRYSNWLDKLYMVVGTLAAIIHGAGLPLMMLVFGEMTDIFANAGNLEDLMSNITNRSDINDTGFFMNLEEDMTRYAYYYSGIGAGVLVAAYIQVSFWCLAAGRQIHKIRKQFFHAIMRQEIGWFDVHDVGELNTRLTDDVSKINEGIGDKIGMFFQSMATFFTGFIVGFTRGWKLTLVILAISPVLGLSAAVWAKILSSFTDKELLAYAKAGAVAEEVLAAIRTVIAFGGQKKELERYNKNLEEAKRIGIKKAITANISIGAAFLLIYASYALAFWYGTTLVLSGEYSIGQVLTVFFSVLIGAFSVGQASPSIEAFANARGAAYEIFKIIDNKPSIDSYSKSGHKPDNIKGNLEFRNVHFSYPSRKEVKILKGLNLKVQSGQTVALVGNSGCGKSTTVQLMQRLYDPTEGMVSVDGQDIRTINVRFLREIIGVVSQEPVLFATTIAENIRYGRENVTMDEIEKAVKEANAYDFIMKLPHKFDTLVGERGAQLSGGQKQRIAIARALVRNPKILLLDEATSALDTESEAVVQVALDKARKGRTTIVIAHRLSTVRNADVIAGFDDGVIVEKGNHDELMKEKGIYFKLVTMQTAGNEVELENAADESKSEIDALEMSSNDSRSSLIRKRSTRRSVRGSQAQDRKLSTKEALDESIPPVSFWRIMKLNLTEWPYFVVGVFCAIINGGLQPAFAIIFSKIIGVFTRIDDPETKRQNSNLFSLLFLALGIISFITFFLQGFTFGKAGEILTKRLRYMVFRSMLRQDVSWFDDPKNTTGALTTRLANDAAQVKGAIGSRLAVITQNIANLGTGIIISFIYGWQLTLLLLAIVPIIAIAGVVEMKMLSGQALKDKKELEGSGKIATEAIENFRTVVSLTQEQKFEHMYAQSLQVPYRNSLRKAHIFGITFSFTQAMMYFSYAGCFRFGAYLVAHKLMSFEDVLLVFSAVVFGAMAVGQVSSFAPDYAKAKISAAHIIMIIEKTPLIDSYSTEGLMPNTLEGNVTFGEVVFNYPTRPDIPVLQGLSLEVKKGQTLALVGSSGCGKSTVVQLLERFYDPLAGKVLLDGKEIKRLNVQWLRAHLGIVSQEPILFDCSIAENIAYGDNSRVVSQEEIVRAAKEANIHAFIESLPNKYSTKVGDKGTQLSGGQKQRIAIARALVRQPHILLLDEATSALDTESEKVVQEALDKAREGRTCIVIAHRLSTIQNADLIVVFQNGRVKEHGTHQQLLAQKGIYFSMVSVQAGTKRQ

[6] = tested on: Bcrp1/Abcg2; details: mouse, in vivo
[7] = mouse, in vivo
[8] = molecular target: T2, OAT2 (Homo sapiens, UniProt Q9Y694); assay: Uptake in HEK-293 cells transfected with OAT2 vs empty vector; format: in vitro ADME; details: HEK-293/OAT2
T2 sequence (Q9Y694 1-548): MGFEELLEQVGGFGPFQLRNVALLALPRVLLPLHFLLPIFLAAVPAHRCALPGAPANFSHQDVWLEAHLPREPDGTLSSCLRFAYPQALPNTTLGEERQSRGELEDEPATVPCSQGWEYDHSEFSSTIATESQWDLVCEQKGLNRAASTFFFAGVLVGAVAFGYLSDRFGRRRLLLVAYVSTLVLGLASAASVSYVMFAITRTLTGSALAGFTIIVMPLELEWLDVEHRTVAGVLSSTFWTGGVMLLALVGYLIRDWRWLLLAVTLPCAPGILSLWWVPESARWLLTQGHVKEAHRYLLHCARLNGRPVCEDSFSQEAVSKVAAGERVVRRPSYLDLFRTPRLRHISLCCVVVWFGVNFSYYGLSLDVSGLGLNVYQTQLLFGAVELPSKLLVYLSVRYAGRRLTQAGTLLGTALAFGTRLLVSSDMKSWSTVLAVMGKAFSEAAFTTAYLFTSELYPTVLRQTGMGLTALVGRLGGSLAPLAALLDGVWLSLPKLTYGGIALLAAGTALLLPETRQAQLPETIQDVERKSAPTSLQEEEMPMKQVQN

[9] = in vitro; details: mouse, plasma
[10] = tested on: Mrp4/Abcc4; assay: in vivo; details: mouse, brain ECF (relative to unbound plasma), po, 50 mg/kg
[11] = tested on: Bcrp1/Abcg2; assay: in vivo; details: mouse, brain ECF (relative to unbound plasma), po, 50 mg/kg
[12] = molecular target: T3, OCT1 (Homo sapiens, UniProt O15245); assay: Uptake in HEK-293 cells transfected with OCT1 vs empty vector; format: in vitro ADME; details: HEK-293/OCT1
T3 sequence (O15245 1-554): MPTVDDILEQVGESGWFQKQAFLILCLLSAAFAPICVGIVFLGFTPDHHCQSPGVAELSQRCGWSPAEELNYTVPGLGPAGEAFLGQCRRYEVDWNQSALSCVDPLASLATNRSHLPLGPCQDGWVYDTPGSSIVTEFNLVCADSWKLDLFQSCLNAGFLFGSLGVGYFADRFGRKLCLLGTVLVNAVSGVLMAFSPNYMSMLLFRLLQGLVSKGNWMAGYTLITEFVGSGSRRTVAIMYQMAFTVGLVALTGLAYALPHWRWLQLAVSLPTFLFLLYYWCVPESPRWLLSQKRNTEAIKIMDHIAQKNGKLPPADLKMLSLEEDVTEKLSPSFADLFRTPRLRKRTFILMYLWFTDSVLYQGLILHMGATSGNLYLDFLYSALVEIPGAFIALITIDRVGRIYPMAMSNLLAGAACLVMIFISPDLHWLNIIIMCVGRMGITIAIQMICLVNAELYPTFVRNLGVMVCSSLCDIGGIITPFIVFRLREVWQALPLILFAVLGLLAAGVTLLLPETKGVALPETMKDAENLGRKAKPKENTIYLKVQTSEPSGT

[13] = format: in vivo, mouse; details: for Mean AUC0-24,Plasma compared to wild-type mice: mouse, in vivo, po, 50 mg/kg
[14] = tested on: P-gp (Mdr1a/b) and Bcrp1/Abcg2; assay: in vivo; details: mouse, brain ECF (relative to unbound plasma), po, 50 mg/kg

C#Cc1cccc(Nc2ncnc3cc(OCCOC)c(OCCO)cc23)c1 [OSI-420]
Brain penetration relative to wild-type mice [1]: 4 fold | Uptake vs empty vector HEK-293 cells [2]: significantly higher | Differences in unbound fraction between strains (mouse, plasma): No significant differences | Unbound fraction (fu) (mouse, plasma): 6.6 % ± 0.7% | PBrain (brain ECF-to-unbound plasma AUC0-24 ratio) [3]: 0.08 ± 0.06 | PBrain (brain ECF-to-unbound plasma AUC0-24 ratio) [4]: 0.04±0.02 | Effect of elacridar on intracellular accumulation ([5]; LLCPK1-MDR1 cells, pre-incubation 30 minutes with elacridar (4 μM)): significantly increased | Intracellular accumulation vs control cells ([5]; LLCPK1-MDR1 vs LLCPK1, 0.5 μg/mL, 37°C): lower accumulation; also recorded: significantly reduced | Brain penetration relative to wild-type mice [6]: 7 fold | Penetration of unbound drug from plasma across the BBB [7]: 7% | PBrain (brain ECF-to-unbound plasma AUC0-24 ratio) ([7]; po, 50 mg/kg): 0.07±0.02

C#Cc1cccc(Nc2ncnc3cc(OCCOC)c(OCCOC)cc23)c1 [erlotinib, Erlotinib]
Uptake vs empty vector HEK-293 cells [2]: significantly higher | Uptake vs empty vector HEK-293 cells ([2]; listed as Erlotinib): higher | Differences in unbound fraction between strains (plasma from each mouse strain, equilibrium dialysis): No significant differences | Transport by transporter [8]: not found to transport | fraction unbound at 10 h [9]: 0.048 | Kp [10]: 0.32 ± 0.24 | Kp [11]: 1.4 ± 0.9 | Transport by transporter [12]: not found to transport | Mean AUC0-24,Plasma compared to wild-type mice ([13]; Abcc4−/−): 0.9 fold | Mean AUC0-24,Plasma compared to wild-type mice ([13]; Abcg2−/−): 1.25 fold | Mean AUC0-24,Plasma compared to wild-type mice ([13]; Mdr1a/b−/−): 0.9 fold | Mean AUC0-24,Plasma compared to wild-type mice ([13]; Mdr1a/b−/−Abcg2−/−): 1.3 fold | Tolerability of single dose ([13]; single oral dose 50 mg/kg, all strains): tolerated well | Kp [14]: 0.7 ± 0.26
